From ChEMBL document CHEMBL1201862, “PubChem BioAssay data set” (2004)
Activity calls are given as the source filed them.

Tests used:
[1] = target: DNA dC->dU-editing enzyme APOBEC-3A (Homo sapiens, UniProt P31941); experiment: Dose Response confirmation of small molecule APOBEC3A DNA Deaminase Inhibitors via a fluorescence-based single-stranded DNA deaminase assay. [Related pubchem assays (depositor defined):AID493011, AID493024]; format: functional
[2] = target: DNA dC->dU-editing enzyme APOBEC-3G (Homo sapiens, UniProt Q9HC16); format: functional;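 further: Dose-response counterscreen measuring inhibition of APOBEC3G DNA deaminase activity, run while confirming APOBEC3A inhibitors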
Chain of DNA dC->dU-editing enzyme APOBEC-3G (Q9HC16 whole entry, the tested form may be a part): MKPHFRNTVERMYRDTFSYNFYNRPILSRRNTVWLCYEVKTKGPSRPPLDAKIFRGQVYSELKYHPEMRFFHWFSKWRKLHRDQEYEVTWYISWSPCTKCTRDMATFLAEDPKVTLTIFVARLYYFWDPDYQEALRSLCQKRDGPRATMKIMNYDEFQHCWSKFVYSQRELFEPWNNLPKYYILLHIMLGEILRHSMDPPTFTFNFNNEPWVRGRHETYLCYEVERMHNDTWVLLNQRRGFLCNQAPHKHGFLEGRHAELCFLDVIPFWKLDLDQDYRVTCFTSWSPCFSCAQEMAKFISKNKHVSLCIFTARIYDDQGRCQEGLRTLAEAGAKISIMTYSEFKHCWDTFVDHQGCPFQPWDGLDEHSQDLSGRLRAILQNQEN

[3] = HIV-1 AD8 envelope cell-cell fusion blockers – cherry-pick, dose response (AID 652062); format: functional, cell-based;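 further: luciferase signal from cell-cell fusion driven by HIV-1 clade B AD8 Env; potency is for inhibitors of fusion seen as a drop in luminescence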
[4] = non-specific 3'UTR reporter inhibition in Clone20-Shn3RL – cell-based, Renilla luciferase, cherry-picked, counter-screen for Shn3 inhibitor project, dose response (AID 624133); format: functional
[5] = reduction of Shn3 3'UTR-driven luciferase in osteoblasts – cell-based, Clone20 osteoblasts, firefly luciferase, cherry-picked, dose response (AID 624132); format: functional;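 further: firefly luciferase luminescence from reporter carrying the Shn3 3'UTR in osteoblasts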
[6] = HEK-293T viability loss after treatment – luminescence, T-cell screen hits, cytotoxicity control for TCR NF-kB inhibitor project, dose response (AID 489026); format: functional, cell-based;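 further: cells exposed to compound about 14 hours before the viability readout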
[7] = blockers of HIV-1 ZM109 envelope-driven cell-cell fusion – HeLa effector, CEM target cells, luciferase, cherry-pick, dose response (AID 652058); format: functional, cell-based;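 further: luciferase signal from HIV-1 Env mediated cell-cell fusion of effector and target cells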
[8] = target: T1, Short transient receptor potential channel 4 (Mus musculus, UniProt Q9QUQ5); experiment: calcium entry via TRPC4 opening agents – cell-based, HEK293 TRPC4/mu-opioid, Fluo-4 calcium, dose response (AID 434937); format: functional
T1 sequence (Q9QUQ5 whole entry): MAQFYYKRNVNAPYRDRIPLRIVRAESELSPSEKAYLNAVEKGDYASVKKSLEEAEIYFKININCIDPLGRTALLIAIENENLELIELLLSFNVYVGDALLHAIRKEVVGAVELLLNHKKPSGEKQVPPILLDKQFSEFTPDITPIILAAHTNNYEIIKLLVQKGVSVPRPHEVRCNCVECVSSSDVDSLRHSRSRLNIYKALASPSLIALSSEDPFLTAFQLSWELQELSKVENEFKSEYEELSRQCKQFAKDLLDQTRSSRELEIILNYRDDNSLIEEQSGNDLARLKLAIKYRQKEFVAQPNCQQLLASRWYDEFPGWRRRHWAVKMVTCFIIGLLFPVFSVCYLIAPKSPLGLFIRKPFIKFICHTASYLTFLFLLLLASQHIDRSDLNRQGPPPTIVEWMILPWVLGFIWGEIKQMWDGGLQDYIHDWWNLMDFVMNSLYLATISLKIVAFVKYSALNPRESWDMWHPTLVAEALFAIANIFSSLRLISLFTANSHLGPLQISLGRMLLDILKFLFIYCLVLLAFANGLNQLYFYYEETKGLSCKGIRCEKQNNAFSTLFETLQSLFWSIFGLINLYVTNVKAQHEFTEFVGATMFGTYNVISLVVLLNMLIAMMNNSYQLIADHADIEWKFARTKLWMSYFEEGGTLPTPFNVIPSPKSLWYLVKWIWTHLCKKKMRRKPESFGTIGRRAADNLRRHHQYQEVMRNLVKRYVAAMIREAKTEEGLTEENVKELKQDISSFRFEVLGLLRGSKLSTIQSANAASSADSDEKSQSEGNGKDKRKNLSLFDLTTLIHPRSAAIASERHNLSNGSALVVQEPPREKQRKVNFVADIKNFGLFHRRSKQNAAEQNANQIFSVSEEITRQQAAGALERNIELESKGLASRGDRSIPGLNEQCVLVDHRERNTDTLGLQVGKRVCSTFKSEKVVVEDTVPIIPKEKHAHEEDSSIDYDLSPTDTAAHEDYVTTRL

[9] = tested on: BJ; experiment: cells; format: functional, cell-based; conditions: Homo sapiens
[10] = tested on: BJ; experiment: BJ-TERT fibroblast viability loss – cell-based, RAS-independent, luminescence, dose response (AID 1933); format: functional; conditions: Homo sapiens
[11] = tested on: BJ; experiment: BJ-TERT-LT-ST fibroblast viability loss – cell-based, RAS-independent, luminescence, dose response (AID 1935); format: functional; conditions: Homo sapiens;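 further: BJ fibroblasts immortalized with TERT plus LT and ST oncogenes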
[12] = DRD fibroblast viability loss – cell-based, non-viral oncogenic, luminescence, dose response (AID 1934); format: functional; conditions: Homo sapiens
[13] = target: T2, Replicative DNA helicase DnaB (Mycobacterium tuberculosis, UniProt P9WMR3); experiment: DnaB intein splicing inhibitors, dose response, biochemical, cell-free fluorescence (AID 449749); format: functional
T2 sequence (P9WMR3 whole entry): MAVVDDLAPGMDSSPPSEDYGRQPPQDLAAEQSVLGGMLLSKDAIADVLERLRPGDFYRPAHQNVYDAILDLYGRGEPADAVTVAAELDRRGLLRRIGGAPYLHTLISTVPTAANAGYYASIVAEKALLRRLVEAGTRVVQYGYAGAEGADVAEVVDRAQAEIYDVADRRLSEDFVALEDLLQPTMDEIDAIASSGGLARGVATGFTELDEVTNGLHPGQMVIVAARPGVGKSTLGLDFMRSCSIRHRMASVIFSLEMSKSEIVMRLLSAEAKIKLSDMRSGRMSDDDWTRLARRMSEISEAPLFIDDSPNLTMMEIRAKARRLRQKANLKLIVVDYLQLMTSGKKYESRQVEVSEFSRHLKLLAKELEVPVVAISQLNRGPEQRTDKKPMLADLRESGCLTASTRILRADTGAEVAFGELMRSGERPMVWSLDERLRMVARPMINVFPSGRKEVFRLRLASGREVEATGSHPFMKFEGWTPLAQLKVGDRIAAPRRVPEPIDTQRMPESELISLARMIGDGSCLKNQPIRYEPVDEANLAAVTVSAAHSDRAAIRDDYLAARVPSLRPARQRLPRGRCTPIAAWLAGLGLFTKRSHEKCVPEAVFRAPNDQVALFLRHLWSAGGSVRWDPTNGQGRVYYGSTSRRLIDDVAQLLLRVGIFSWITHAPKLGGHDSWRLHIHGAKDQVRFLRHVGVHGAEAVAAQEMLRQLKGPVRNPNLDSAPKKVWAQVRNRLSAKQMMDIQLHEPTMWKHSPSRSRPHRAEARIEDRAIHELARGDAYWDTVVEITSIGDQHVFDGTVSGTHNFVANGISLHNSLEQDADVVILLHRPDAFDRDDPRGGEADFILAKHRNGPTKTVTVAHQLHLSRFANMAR

[14] = target: T3, Small ubiquitin-related modifier 1 (Homo sapiens, UniProt P63165); experiment: SUMO1 protein-protein binding blockers, potency – biochemical, FRET, dose response (AID 624383); format: functional; conditions: read-out: IC50_Mean
T3 sequence (P63165 whole entry): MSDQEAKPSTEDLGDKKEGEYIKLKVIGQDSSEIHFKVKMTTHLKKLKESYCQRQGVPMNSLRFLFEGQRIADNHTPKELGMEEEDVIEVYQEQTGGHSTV

[15] = target: Large T antigen (Simian virus 40, UniProt P03070); format: functional, Betapolyomavirus macacae;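 further: Confirmatory-stage PubChem screen for compounds that inhibit SV40 T antigen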
Chain of Large T antigen (P03070 whole entry): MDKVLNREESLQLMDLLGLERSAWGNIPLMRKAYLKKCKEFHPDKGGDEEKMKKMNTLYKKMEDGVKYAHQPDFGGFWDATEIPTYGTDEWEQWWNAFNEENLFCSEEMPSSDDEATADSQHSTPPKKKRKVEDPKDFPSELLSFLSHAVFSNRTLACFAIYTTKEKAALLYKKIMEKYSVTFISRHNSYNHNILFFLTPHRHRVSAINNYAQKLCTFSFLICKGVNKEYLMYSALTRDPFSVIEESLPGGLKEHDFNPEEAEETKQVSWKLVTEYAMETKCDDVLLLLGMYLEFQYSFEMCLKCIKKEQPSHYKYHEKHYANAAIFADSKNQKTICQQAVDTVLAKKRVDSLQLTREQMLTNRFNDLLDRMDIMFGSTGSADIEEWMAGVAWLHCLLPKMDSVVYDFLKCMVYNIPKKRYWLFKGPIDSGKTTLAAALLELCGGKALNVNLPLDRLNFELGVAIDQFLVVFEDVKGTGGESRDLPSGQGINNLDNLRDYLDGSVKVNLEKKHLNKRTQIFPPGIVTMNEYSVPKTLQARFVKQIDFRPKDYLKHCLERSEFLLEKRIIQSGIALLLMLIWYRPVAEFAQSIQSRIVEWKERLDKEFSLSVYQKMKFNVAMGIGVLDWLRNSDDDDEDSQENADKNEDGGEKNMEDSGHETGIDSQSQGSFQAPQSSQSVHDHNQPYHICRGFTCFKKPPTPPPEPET

[16] = target: T4, Protein RecA (Mycobacterium tuberculosis, UniProt P9WHJ3); experiment: Fluorescence Cell-Free Homogeneous Dose Retest to Identify Inhibitors of RecA-Intein Splicing Activity. [Related pubchem assays (depositor defined):AID2097, AID2223, AID489010, AID492950]; format: functional
T4 sequence (P9WHJ3 whole entry): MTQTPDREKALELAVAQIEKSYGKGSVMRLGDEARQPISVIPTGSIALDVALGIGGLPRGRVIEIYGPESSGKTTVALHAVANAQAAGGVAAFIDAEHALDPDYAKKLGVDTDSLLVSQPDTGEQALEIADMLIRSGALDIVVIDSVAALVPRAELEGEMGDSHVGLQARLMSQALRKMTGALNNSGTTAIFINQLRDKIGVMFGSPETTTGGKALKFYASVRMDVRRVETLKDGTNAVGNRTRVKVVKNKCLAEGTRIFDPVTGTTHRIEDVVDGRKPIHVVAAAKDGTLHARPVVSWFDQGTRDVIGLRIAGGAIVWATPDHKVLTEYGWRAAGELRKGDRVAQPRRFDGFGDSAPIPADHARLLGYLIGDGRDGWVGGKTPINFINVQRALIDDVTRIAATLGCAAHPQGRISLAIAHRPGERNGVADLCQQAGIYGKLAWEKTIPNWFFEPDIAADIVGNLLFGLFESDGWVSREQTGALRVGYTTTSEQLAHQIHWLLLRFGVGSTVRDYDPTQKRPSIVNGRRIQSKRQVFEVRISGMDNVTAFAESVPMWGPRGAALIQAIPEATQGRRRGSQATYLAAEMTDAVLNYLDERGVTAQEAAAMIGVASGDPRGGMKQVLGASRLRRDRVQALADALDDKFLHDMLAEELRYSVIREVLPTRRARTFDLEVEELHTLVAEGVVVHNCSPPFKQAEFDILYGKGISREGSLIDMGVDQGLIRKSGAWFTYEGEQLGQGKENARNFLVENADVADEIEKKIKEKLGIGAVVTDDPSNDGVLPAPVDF

[17] = target: Induced myeloid leukemia cell differentiation protein Mcl-1 (Homo sapiens, UniProt Q07820); format: functional
Chain of Induced myeloid leukemia cell differentiation protein Mcl-1 (Q07820 whole entry): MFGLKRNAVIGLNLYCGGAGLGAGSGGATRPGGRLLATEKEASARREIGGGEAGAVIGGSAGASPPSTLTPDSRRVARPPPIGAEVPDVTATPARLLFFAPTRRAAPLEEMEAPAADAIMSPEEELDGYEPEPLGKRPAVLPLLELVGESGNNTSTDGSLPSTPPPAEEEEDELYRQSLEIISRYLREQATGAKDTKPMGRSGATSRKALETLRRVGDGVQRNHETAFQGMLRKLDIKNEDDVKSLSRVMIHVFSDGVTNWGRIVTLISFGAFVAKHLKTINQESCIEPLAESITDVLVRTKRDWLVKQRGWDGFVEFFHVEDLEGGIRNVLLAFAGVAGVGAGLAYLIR

[18] = target: T3, Small ubiquitin-related modifier 1; experiment: SUMO1 protein interaction blockers, potency – biochemical, fluorescence polarization, uHTS hits, dose response (AID 624382); format: functional; conditions: read-out: IC50_Mean
[19] = target: T5, Histone-lysine N-methyltransferase NSD2 (Homo sapiens, UniProt O96028); format: biochemical
T5 sequence (O96028 whole entry): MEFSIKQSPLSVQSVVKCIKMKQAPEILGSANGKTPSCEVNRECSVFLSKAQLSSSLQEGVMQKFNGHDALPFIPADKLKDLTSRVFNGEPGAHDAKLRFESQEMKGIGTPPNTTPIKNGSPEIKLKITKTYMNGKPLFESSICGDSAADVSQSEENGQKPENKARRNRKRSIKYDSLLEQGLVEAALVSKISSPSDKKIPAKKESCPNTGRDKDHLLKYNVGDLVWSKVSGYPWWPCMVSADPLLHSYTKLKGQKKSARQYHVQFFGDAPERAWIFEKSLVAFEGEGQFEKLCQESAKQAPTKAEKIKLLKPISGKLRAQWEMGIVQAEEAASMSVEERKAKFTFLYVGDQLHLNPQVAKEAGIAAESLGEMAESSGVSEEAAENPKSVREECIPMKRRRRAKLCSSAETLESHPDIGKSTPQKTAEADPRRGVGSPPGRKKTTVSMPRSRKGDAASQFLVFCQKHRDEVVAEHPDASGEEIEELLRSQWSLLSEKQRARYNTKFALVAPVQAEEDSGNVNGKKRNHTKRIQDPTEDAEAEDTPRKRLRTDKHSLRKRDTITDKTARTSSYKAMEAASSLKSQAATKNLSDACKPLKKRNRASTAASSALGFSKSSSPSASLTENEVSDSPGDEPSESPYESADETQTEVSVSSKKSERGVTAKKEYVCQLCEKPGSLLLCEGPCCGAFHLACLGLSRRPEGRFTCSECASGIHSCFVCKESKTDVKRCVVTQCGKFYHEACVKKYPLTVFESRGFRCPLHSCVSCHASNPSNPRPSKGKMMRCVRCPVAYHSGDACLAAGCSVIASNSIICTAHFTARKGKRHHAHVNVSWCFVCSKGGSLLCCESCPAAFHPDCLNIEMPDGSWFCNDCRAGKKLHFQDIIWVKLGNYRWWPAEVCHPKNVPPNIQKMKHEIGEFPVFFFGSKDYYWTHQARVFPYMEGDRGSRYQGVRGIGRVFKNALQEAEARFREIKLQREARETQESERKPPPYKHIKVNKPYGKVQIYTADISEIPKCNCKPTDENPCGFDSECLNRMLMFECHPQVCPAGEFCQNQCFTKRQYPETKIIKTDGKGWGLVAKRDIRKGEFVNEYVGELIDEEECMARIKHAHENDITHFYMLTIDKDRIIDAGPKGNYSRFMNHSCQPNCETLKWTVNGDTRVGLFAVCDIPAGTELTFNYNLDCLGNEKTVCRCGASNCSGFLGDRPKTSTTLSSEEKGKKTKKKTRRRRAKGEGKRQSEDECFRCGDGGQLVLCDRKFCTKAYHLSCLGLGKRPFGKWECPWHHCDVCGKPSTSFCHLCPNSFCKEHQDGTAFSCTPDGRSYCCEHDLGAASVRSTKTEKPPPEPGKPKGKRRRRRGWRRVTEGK

Chain of DNA dC->dU-editing enzyme APOBEC-3A (P31941 whole entry): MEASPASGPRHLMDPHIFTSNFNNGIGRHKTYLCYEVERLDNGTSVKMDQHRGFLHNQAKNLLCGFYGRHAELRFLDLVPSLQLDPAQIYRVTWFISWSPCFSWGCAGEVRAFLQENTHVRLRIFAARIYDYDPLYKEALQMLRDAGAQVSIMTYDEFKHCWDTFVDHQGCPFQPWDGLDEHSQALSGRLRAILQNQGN

CCCc1nc2sc3c(SCC(=O)NCc4ccco4)ncnc3c2c2c1CCC2
IC50 [1]: 15.8 µM (active) | IC50 [2]: 25.3 µM (active)

O=C(Nc1ccc(S(=O)(=O)N2CCN(Cc3ccccc3)CC2)cc1)c1cnccn1
AC50 [3]: 4.9 µM (active) | AC50 [4]: 4.15 µM (active) | AC50 [5]: 1.65 µM (active) | IC50 [6]: > 80 µM (inactive) | AC50 [7]: < 0.26 µM (active)

O=C(O)Cc1ccc(S(=O)(=O)N2CCCC2)s1
IC50 [1]: 17.4 µM (active) | IC50 [2]: 66.5 µM (active)

COc1ccc2c(/C=C/c3cc[n+](C)cc3)c[nH]c2c1
IC50 [1]: 6.12 µM (active) | IC50 [2]: 6.31 µM (active)

COc1cc(C)c(NC(=O)C2CCN(S(=O)(=O)c3cccs3)CC2)cc1OC
IC50 [1]: 12 µM (active) | IC50 [2]: 13.9 µM (active)

CCOC(=O)C1(CCOc2ccccc2)CCN(Cc2ccc(OC)c(O)c2)CC1
EC50 [8]: 0.473 µM (active)

CCc1cc2c(s1)N1Cc3ccccc3C(C(=O)c3cccc([N+](=O)[O-])c3)=C1NC2=O
EC50 [9]: > 150 µM (not active) | EC50 [10]: > 150 µM (not active) | EC50 [11]: > 150 µM (inconclusive) | EC50 [12]: > 150 µM (not active) | IC50 [6]: > 80 µM (inactive)

CN1C(=O)/C(=C/c2ccc(-c3ccccc3[N+](=O)[O-])o2)S/C1=N\c1ccc(Cl)c(C(=O)O)c1
AC50 [13]: 10.6 µM (active) | IC50 [14]: 17.7 µM (active) | IC50 [15]: 52.8 µM (active) | EC50 [16]: 5.51 µM (active) | IC50 [17]: 14 µM (active) | IC50 [18]: > 66.6 µM (inactive) | AC50 [19]: 4.58 µM (active)

CC(=Nc1cc(C)cc(C)c1)N(C)CCNS(=O)(=O)c1ccc(Cl)cc1
IC50 [1]: 2.67 µM (active) | IC50 [2]: 4.92 µM (active)
